In patent publication US12460346B2, “Lactam coated textile” (Conopco, Inc., priority 2018, dated 2025):

Tests used:
P. aeruginosa (PA01) [1] = assay: Pseudomonas PAO1 biofilm inhibition on lactam-based textiles by SEM; assay type: cell-based, Pseudomonas aeruginosa; conditions: for Bacteria (pixels): SEM image; for % bacteria coverage: bacteria pixels/total pixels of SEM image
Protocol: P. aeruginosa (PA01) was cultured overnight at 37° C. on TSA plates. Prior to use in tests, colonies were added to 20 mL of brain-heart infusion broth (BHI) containing 5 mL of glass beads and homogenised for 30 seconds. The optical density of the organism was measured and adjusted to give 1×10^8 cfu/mL. Inoculum (0.3 ml) was placed directly on modified and unmodified textiles in 24-well plates and incubated overnight in appropriate broth. Textiles were subsequently removed, washed in PBS and fixed for microscopy.
Fixative was prepared as described (Erlandsen, Kristich, Dunny, Wells, J. Histochem Cytochem, 2004), using 2% para-formaldehyde, 2% gluteraldehyde and 0.15M Sodium Cacodylate and 0.15% Alcian Blue, pH 7.4. The fixative was applied (enough to cover the biofilms) to the wells containing the biofilms on suitable substrates for 2 hours, this varied between 2 and 22 hours.
Following fixation, the fixative solution was removed and 0.15M Sodium Cacodylate buffer was added to the samples. The samples were then stored in the fridge until processing. Samples were washed 3×5 mins with […] fresh buffer to remove any remaining glutaraldehyde. Subsequently, a solution of 1% Osmium tetroxide (OsO4) was prepared 1:1 with 0.15M Sodium Cacodylate buffer, and added to the samples before incubating for 1 hour at room temperature. Samples were rinsed with distilled water 3×10 mins. 0.5% aqueous Uranyl acetate was then added to the samples before incubation in the dark for 30 mins at room temperature.
Samples were then dehydrated in an ascending ethanol series:
Samples were transferred from the original 24-well plate into a petri dish of hexamethyldisilazane (HMDS) for 5 mins, then to a second dish for 5 mins before being placed in a new 24-well plate lined with filter paper. The plate was then placed in a desiccator overnight to allow evaporation and drying or samples.
After sputter coating with gold-palladium in an argon filled chamber, samples were viewed under a JEOL JSM-6400 scanning electron microscope and images were assembled using the Photoshop software.
The SEM images were measured and the amount of pixels of textile and pixels of bacteria were determined. The % of bacteria coverage is the bacteria pixels/total pixels.

[2] = tested on: S. aureus (Newman's strain); assay: Biofilm growth inhibition on lactam-based acrylic emulsion textiles by viability (AlamarBlue), Staphylococcus; assay type: cell-based, Staphylococcus aureus; conditions: acrylic emulsion coated with lactam, overnight, lower than 100 = reduction in biofilm growth
Protocol: (§1) P. aeruginosa (PA01), S. aureus (Newman's strain) were cultured overnight at 37° C. on TSA 5 plates. C. albicans […] was cultured for 2 days at 30° C. on MEA plates. Prior to use in tests, colonies of each organism were added to 20 mL of brain-heart infusion broth (BHI) containing 5 mL of glass beads and homogenised for 30 seconds. The optical density of each organism was measured and adjusted to give 1×10^7 cfu/mL. Inoculum (0.3 ml) was placed directly on acrylic emulsion coated cotton and PET textiles (with and without lactam) that have been previously positioned inside the wells of 6-well plates and incubated overnight in appropriate broth. Textiles were subsequently removed, washed in PBS and metabolism assessed by AlamarBlue on a plate reader. Data were presented as percentage of no-lactam control. A number lower than 100 indicates a reduction in microorganism biofilm growth for the lactam coated textile compared to uncoated textile.

C. albicans 3153A = assay: Biofilm growth inhibition on lactam-based acrylic emulsion textiles by viability (AlamarBlue), Candida; assay type: cell-based, Candida albicans; conditions: acrylic emulsion coated with lactam, overnight, lower than 100 = reduction in biofilm growth
Protocol: as §1

P. aeruginosa GFP = assay: Pseudomonas Aeruginosa-GFP biofilm growth curve inhibition on lactam-based textiles by fluorescence; assay type: cell-based; conditions: lactam in acrylic emulsion binder, printed, or encapsulated and padded on textile; compared to textile without the lactam
Protocol: A fluorescent strain of P. aeruginosa was used to allow growth inhibition to be measured by fluorescence. P. aeruginosa GFP was cultured for 2 days at 30° C. on MEA plates. Prior to use in tests, colonies were added to 20 mL of brain-heart infusion broth (BHI) containing 5 mL of glass beads and homogenised for 30 seconds. The optical density was measured and adjusted to give 1×10^8 cfu/m. Subsequently, 0.5 mL of the strain in BHI broth was added to the wells of a 24 well plate containing the substrates. This was then placed in the plate reader and read every hour at […]. The experiment tested a control (textile without lactam coating, the sample (textile coated with lactam) and a positive control (chlorhexidine).

P. aeruginosa (PA01) [3] = assay: Biofilm growth inhibition on lactam-based acrylic emulsion textiles by viability (AlamarBlue), Pseudomonas; assay type: cell-based, Pseudomonas aeruginosa; conditions: for Mean biofilm metabolism (AlamarBlue): acrylic emulsion coated with lactam, overnight, lower than 100 = reduction in biofilm growth
Protocol: as §1

Structure (SMILES) | Bacteria (pixels) (P. aeruginosa (PA01) [1]; fluorinated polypropylene non-woven coated with cationic lactam, control textile 30,880) | % bacteria coverage (P. aeruginosa (PA01) [1]; fluorinated polypropylene non-woven coated with cationic lactam, control textile 78.0%) [%] | % bacteria coverage (P. aeruginosa (PA01) [1]; fluorinated polypropylene non-woven coated with cationic lactam, control textile 78.0%, listed as Cationic Lactam) [%] | Mean biofilm metabolism (AlamarBlue) ([2]; Cotton) | Mean biofilm metabolism (AlamarBlue) ([2]; Polyethylene) | Mean biofilm metabolism (AlamarBlue) (C. albicans 3153A; Cotton) | Mean biofilm metabolism (AlamarBlue) (C. albicans 3153A; Polyethylene) | Pseudomonas Aeruginosa-GFP biofilm growth on the textile (fluorescence growth curve) (P. aeruginosa GFP) | Mean biofilm metabolism (AlamarBlue) (P. aeruginosa (PA01) [3]; Cotton) | Mean biofilm metabolism (AlamarBlue) (P. aeruginosa (PA01) [3]; Polyethylene) | biofilm growth compared to textile with no coating (in words) (P. aeruginosa (PA01) [3]; polyethylene and cotton coated with lactam) | Bacteria (pixels) (P. aeruginosa (PA01) [1]; polypropylene non-woven coated with lactam in acrylic emulsion, control textile 10,851) | % bacteria coverage (P. aeruginosa (PA01) [1]; polypropylene non-woven coated with lactam in acrylic emulsion, control textile 32.1%) [%] | % bacteria coverage (P. aeruginosa (PA01) [1]; polypropylene non-woven coated with lactam in acrylic emulsion, control textile 32.1%, listed as lactam) [%] | Bacteria (pixels) (P. aeruginosa (PA01) [1]; polypropylene non-woven printed with lactam in solvents, control textile 26,917) | % bacteria coverage (P. aeruginosa (PA01) [1]; polypropylene non-woven printed with lactam in solvents, control textile 62.6%) [%] | % bacteria coverage (P. aeruginosa (PA01) [1]; polypropylene non-woven printed with lactam in solvents, control textile 62.6%, listed as lactam) [%] | Bacteria (pixels) (P. aeruginosa (PA01) [1]; viscose non-woven padded with lactam in polyurea encaps, control textile 16,291) | % bacteria coverage (P. aeruginosa (PA01) [1]; viscose non-woven padded with lactam in polyurea encaps, control textile 47.8%) [%] | % bacteria coverage (P. aeruginosa (PA01) [1]; viscose non-woven padded with lactam in polyurea encaps, control textile 47.8%, listed as lactam) [%]
C=C1C(c2ccc(Cl)cc2)=CC(=O)N1CCC[N+](C)(C)C [lactam (488) (cationic)] | 15,864 pixels | 36.6 | 36.6 | – | – | – | – | – | – | – | – | – | – | – | – | – | – | – | – | –
C=C1NC(=O)C=C1c1ccc(Cl)cc1 [lactam (488), 4-(4-chlorophenyl)-5-methylene-pyrrol-2-one] | – | – | – | 33.35 percentage of no-lactam control | 47.88 percentage of no-lactam control | 84.69 percentage of no-lactam control | 67.83 percentage of no-lactam control | reduced Pseudomonas Aeruginosa-GFP biofilm growth | 54.89 percentage of no-lactam control | 80.95 percentage of no-lactam control | reduction in Pseudomonas Aeruginosa biofilm growth | 2,660 pixels | 10.1 | 10.1 | 23,381 pixels | 48.0 | 48.0 | 1,806 pixels | 8.7 | 8.7
